“Also recorded” adds a separate entry of the source.
Assays:
[1] = system: PH-domain (pleckstrin homology) of the human isoform of PLC (phospho-lipase C) delta tagged with GFP; assay: Type 3 redistribution assay (PLC delta PH-domain-GFP, ATP stimulus) on FLIPR; format: cell-based; conditions: for increase in the measurable response, type 3 redistribution: summary, enhancer added to extracellular medium, FLIPR
Description: The CHO (Chinese hamster ovary) cell line stably expressing the PH-domain (pleckstrin homology) of the human isoform of PLC (phospho-lipase C) delta tagged with GFP (green fluorescent protein) in its C-terminal end was cultured in 96-well microtiter plates (Packard View-Plate). After 20 min preincubation in KRW (experimental buffer; A modified Krebs-Ringer buffer containing (in mM): NaCl 140, KCl 3.6, NaH2PO4 0.5, MgSO4 0.5, NaHCO3 2.0, CaCl2 1.5 and HEPES 10, D-glucose 5 (pH 7.4, titrated with 1M NaOH)) the cell plate was supplemented with 100 μM Trypan Blue in one half and 10 μM Acid Red 88 in the other half of the wells and placed in the FLIPR™. Subsequently the cells were stimulated in the FLIPR™ with a range of ATP concentrations starting with 300 μM and lower by a threefold reduction of concentration in each dilution step. This gives a Type 3 redistribution response (see FIG. 6) in these cells where the redistribution can be quantified as an increase in fluorescence intensity, as the PH-domain of PLC delta 1 moves from the membrane to the cytosol, during the first 1-2 minutes of stimulation. FIG. 4 summarizes this experiment. All data were corrected for background by subtraction of a background trace based on 4 individual background traces. The data points represent the average of four determinations+SD. The data were extracted as the maximal change during the first minute of stimulation (Smax-Smin).
The CHO (Chinese hamster ovary) cell line stably expressing the PH-domain (pleckstrin homology) of the human isoform of PLC (phospho-lipase C) delta tagged with GFP (green fluorescent protein) in its C-terminal end was cultured in 96-well microtiter plates (Packard View-Plate). After 20 min preincubation in KRW (experimental buffer; A modified Krebs-Ringer buffer containing (in mM): NaCl 140, KCl 3.6, NaH2PO4 0.5, MgSO4 0.5, NaHCO3 2.0, CaCl2 1.5 and HEPES 10, D-glucose 5 (pH 7.4, titrated with 1M NaOH)) the cell plate was supplemented with 100 μM Trypan Blue in one half and 20 μM Acid Red 88 in the other half of the wells and placed in the FLIPR. Subsequently the cells were stimulated in the FLIPR with 100 μM ATP. This gives a Type 3 redistribution response (see FIG. 6) in these cells where the redistribution can be quantified as an increase in fluorescence intensity, as the PH-domain of PLC delta 1 moves from the membrane to the cytosol, during the first 1-2 minutes of stimulation. FIG. 4 summarizes this experiment. It can be seen that Acid Red 88 in this case maximally gives about a 6-7-fold increase in signal over the one obtained with Trypan Blue.

[2] = system: mouse cPKA (catalytic subunit of protein kinase A) tagged with GFP; assay: Type 2 redistribution assay (cPKA-GFP, Forskolin stimulus) on FLIPR; format: cell-based; conditions: for effect on type 2 redistribution response: CHO cells, concentration gradient of dye
Description: The CHO (Chinese hamster ovary) cell line stably expressing the mouse cPKA (catalytic subunit of protein kinase A) tagged with GFP (green fluorescent protein) in its N-terminal end was cultured in 96-well microtiter plates (Packard View-Plate). After 20 min preincubation in KRW (experimental buffer; A modified Krebs-Ringer buffer containing (in mM): NaCl 140, KCl 3.6, NaH2PO4 0.5, MgSO4 0.5, NaHCO3 2.0, CaCl2 1.5 and HEPES 10, D-glucose 5 (pH 7.4, titrated with 1M NaOH)) the cell plate was supplemented with a concentration gradient of Trypan Blue and Acid Red 88 (4 wells per compound and concentration) and placed in the FLIPR™. Subsequently the cells were stimulated in the FLIPR™ with 10 μM Forskolin. This gives a Type 2 redistribution response (see FIG. 6) in these cells where the redistribution can be quantified as an increase in fluorescence intensity, as cPKA moves from aggregates in the cytosol to a dispersed form in the cytosol, during the first 2-5 minutes of stimulation. All data were corrected for background by subtraction of a background trace based on 16 individual background traces and normalized to 1 at the point of addition of 10 μM Forskolin. The data points represent the average of four determinations+SD. The data were extracted as the maximal change in fluorescence during the first five minutes of stimulation. Negative values depict a decrease In fluorescence during the response and positive values and Increase.
The CHO (Chinese hamster ovary) cell line stably expressing the mouse cPKA (catalytic subunit of protein kinase A) tagged with GFP (green fluorescent protein) in its N-terminal end was cultured in 96-well microtiter plates (Packard View-Plate). After 20 min preincubation in KRW (experimental buffer; A modified Krebs-Ringer buffer containing (in mM): NaCl 140, KCl 3.6, NaH2PO4 0.5, MgSO4 0.5, NaHCO3 2.0, CaCl2 1.5 and HEPES 10, D-glucose 5 (pH 7.4, titrated with 1M NaOH)) the cell plate was supplemented with a concentration gradient of Trypan Blue and Acid Red 88 at 0, 10, 50, 100 and 200 μM during the experimental fluorescence recording (4 wells per compound and concentration) in the FLIPR™. […] The data were extracted as the absolute fluorescence change 30 seconds after addition of the two compounds.
The CHO (Chinese hamster ovary) cell line stably expressing the mouse cPKA (catalytic subunit of protein kinase A) tagged with GFP (green fluorescent protein) in its N-terminal end was cultured in 96-well microtiter plates (Packard View-Plate). […] This gives a Type 2 redistribution response (see FIG. 6) in these cells where the redistribution can be quantified as an increase in fluorescence intensity, as cPKA moves from aggregates in the cytosol to a dispersed form in the cytosol, during the first 2-5 minutes of stimulation.

[3] = system: human isoform of PKC (protein kinase C) beta 1 tagged with GFP; assay: Type 1 redistribution assay (PKC beta 1-GFP, ATP stimulus) on FLIPR; format: cell-based; conditions: for increase in the measurable response, type 1 redistribution: summary, enhancer added to extracellular medium, FLIPR
Description: (§1) The CHO (Chinese hamster ovary) cell line stably expressing the human isoform of PKC (protein kinase C) beta 1 tagged with GFP (green fluorescent protein)in its C-terminal end and the human RACK1 (receptor for activated C kinase) was cultured in 96-well microtiter plates (Packard View-Plate). After 20 min preincubation in KRW (experimental buffer; A modified Krebs-Ringer buffer containing (in mM): NaCl 140, KCl 3.6, NaH2PO4 0.5, MgSO4 0.5, NaHCO3 2.0, CaCl2 1.5 and HEPES 10, D-glucose 5 (pH 7.4, titrated with 1M NaOH)) the cell plate was supplemented with a concentration gradient of Trypan Blue at 0, 10, 50, 100 and 200 μM (4 wells per compound and concentration) and placed in the FLIPR™. Subsequently the cells were stimulated in the FLIPR™ with 100 μM ATP. This gives a Type 1 redistribution response (see FIG. 6) in these cells where the redistribution can be quantified as a reduction in fluorescence intensity, as PKC beta 1 moves from the cytosol to the membrane, during the first 1-2 minutes of stimulation. […] All data were corrected for background by subtraction of a background trace based on 16 individual background traces and normalized to 1 at the point of addition of 100 μM ATP.
as §1, with “Acid Red 88” for “Trypan Blue”
The CHO (Chinese hamster ovary) cell line stably expressing the human isoform of PKC (protein kinase C) beta 1 tagged with GFP (green fluorescent protein) in its C-terminal end and the human RACK1 (receptor for activated C kinase) was cultured in 96-well microtiter plates (Packard View-Plate). After 20 min preincubation in KRW (experimental buffer; A modified Krebs-Ringer buffer containing (in mM): NaCl 140, KCl 3.6, NaH2PO4 0.5, MgSO4 0.5, NaHCO3 2.0, CaCl2 1.5 and HEPES 10, D-glucose 5 (pH 7.4, titrated with 1M NaOH)) the cell plate was supplemented with a concentration gradient of Trypan Blue, Acid Red 88 and Orange G at 0, 10, 50, 100 and 200 μM (4 wells per compound and concentration) and placed in the FLIPR™. Subsequently the cells were stimulated in the FLIPR™ with 100 μM ATP. This gives a Type 1 redistribution response (see FIG. 6) in these cells where the redistribution can be quantified as a reduction in fluorescence intensity, as PKC beta 1 moves from the cytosol to the membrane, during the first 1-2 minutes of stimulation. All data were corrected for background by subtraction of a background trace based on 16 individual background traces and normalized to 1 at the point of addition of 100 μM ATP. The data points represent the average of four determinations+SD. […]

[4] = cited from earlier work; for Molar Absorptivity 488 nm: at 488 nm; for Molar Absorptivity 488 nm / Molar Absorptivity 500-550 nm: estimated from published spectra; for Molar Absorptivity 500-550 nm: average over 500-550 nm; for Wavelength of maxiumum absorbance: published spectra
Solubility in water = format: physicochemical

solubility (Solubility in water) | effect on type 3 redistribution response ([1]; 100 μM Trypan Blue, response barely detectable without the compound) | SMILES | increase in signal over the one obtained with Trypan Blue, type 3 redistribution ([1]; maximal, 20 μM Acid Red 88 vs 100 μM Trypan Blue, CHO cells, ATP) | increase in the measurable response, type 3 redistribution [1] | effect on overall basal fluorescence, type 2 redistribution assay ([2]; 0-200 μM, no stimulus (FIG. 10)) | effect on type 2 redistribution response ([2]; 10 μM Forskolin) | effect on type 2 redistribution response at higher concentrations ([2]; above 10 μM, 10 μM Forskolin) | maximal enhancement of the response compared to the control ([3]; at 50 μM enhancer, CHO cells, 100 μM ATP) | effect on overall basal fluorescence, type 1 redistribution assay ([3]; concentration dependent, 0-200 μM, no stimulus (FIG. 7)) | increase in the measurable response, type 1 redistribution [3] | Molar Absorptivity 488 nm [4] | Molar Absorptivity 500-550 nm [4] | Wavelength of maxiumum absorbance [4] | enhancing effect on type 1 redistribution response ([3]; CHO cells, 100 μM ATP, 0-200 μM dye) | maximal enhancement of the response compared to the control ([3]; at 200 μM enhancer, CHO cells, 100 μM ATP)
– | – | O=S(=O)([O-])c1ccc(N=Nc2c(O)ccc3ccccc23)c2ccccc12.[Na+] [Acid Red 88] | 6-7 fold | 7-10 fold | did not reduce the overall basal fluorescence | completely abolished the response at the lowest concentration | reversed it to a fluorescence decrease | about 7 fold | reduces overall basal fluorescence | 6-7 fold | 16986 mol^−1-cm^−1 | 14964 mol^−1-cm^−1 | 505 nm | – | –
– | – | O=S(=O)(O)c1cc(S(=O)(=O)O)c2c(/N=N/c3ccccc3)c(O)ccc2c1 [Orange G] | – | – | – | – | – | – | – | – | 13571 mol^−1-cm^−1 | 4524 mol^−1-cm^−1 | 475 nm | enhancing properties up to a concentration of 100 μM; also recorded: inferior to Trypan Blue and much inferior to Acid Red 88 | –
< 100 µg/mL | clearly give a detectable signal | Cc1cc(-c2ccc(/N=N/c3c(S(=O)(=O)O)cc4cc(S(=O)(=O)O)cc(N)c4c3O)c(C)c2)ccc1/N=N/c1c(S(=O)(=O)O)cc2cc(S(=O)(=O)O)cc(N)c2c1O [Trypan Blue] | – | 1-3 fold | – | reduced it somewhat at higher concentrations; also recorded: no enhancing effect | – | – | – | 2-3 fold | 16014 mol^−1-cm^−1 | 34556 mol^−1-cm^−1 | 607 nm | – | about 3 fold

Source: US20030162165A1, “Chemical signal enhancement of dynamic intensity-based intracellular protein-and fluorophore-based redistribution assays for drug-screening” (priority 2003, published 2003)
